Holding throughout (type): cell-based
Assay [1] deals with cyanobacteria Synechococcus 7002. Description: microbe, parasite or virus in culture. As to the method: (§1) After phototrophical propagation during the 5 days under cool fluorescence light (intensity 5000 lux), the average radii of inhibition zones were measured. Water soaked filter paper circles were used as controls. Experiments for each herbicide concentration were repeated 3 times.

For assay [2], the system named is cyanobacteria Synechocystos 6803. Description: Liquid culture growth inhibition (optical density), fresh water cyanobacteria. The settings on record: Synechocystos 6803, BG-11 liquid medium, 1 mM herbicide, control 1.4. As to the method: (§2) Strains of green algae, cyanobacteria and E. Coli were used as test organisms. The green algae CD 1 Red and cyanobacteria Synechocystos 6803 were obtained from the collection of Prof. George Bullerjahn. Salt water strain of cyanobacteria Synechococcus 7002 was obtained from the collection of Prof. Michael McKay. E Coli DH 5α was obtained from Invitrogen Inc.
Green algae and cyanobacteria were propagated photoautotrophically in 250 mL Erlenmeyer flasks containing 100 mL of liquid BG-11 culture medium (see Supporting Information). The cultures were kept on a rotating shaker (100 rpm) at 25° C. for 4 days and continuously illuminated with cool-white fluorescent light with a constant light intensity of 5000 lux. The grown culture medium was sterilized in an autoclave at 121° C. and 1.05 kg cm^−2 pressure for 20 min. For the cell experiments, 20 mL aliquots of the BG-11 medium containing the green algal ([cells]initial=5.9×10^7 mL^−1) or cyanobacteria cells ([cells]initial=1.7×10^9 mL^−1) were placed in sterile 50 mL Erlenmeyer flasks. […] Cell counts were correlated with the absorbance and measured as a function of time using a Spectronic 20 Genesis spectrophotometer. […] In each experiment, the inhibition of cell growth in treated cultures was monitored spectrophotometrically and compared to the growth in control samples.

Another assay deals with Navicula pelliculosa. The experiment in a line: Inhibition zones around polymer pellets, diatom Navicula. The settings on record: pellet without herbicide 10 ± 1. On the procedure:
(§3) Rectangular copolymer pellets (15×10×1.5 mm) were formed from a model acrylic resin (designated as 459S2) containing several epoxy acrylic oligomers (57%), acrylic monomeric diluents (43%) and a corresponding amount of herbicide. A designated quantity of herbicide was dispersed or partially dissolved in 459S2 resin using ultrasonication and heat (60° C., overnight). To each sample, 1.5% wt. of commercial photoinitiator (ITX), 5% of ODAB synergist and 0.1% co-photoinitiator (Irgacure 819) were added. Liquid formulations were poured into an open top Teflon mold and irradiated under N2 by a 395 nm LED light source for 5 min followed by pellet removal.
(§4) Two different diatom cultures, Phaeodactylum tricornutum and Navicula pelliculosa were used in the biological activity tests. […] Following propagation over 5 days under continuous cool fluorescent light (5000 lx), the average radii of inhibition zones were measured. Experiments for each herbicide concentration were repeated at least two times.

The test system of another assay is green algae CD 1 Red. Description: organism not typed. As to the method:
as §1

Assay [3] has as its system Phaeodactylum tricornutum. The experiment in a line: Inhibition zones around polymer pellets, diatom Phaeodactylum. The settings on record: Phaeodactilum, pellet without herbicide 0. On the procedure: as §3, §4
Assay [4] deals with cyanobacteria Synechococcus 7002. Description: Liquid culture growth inhibition (optical density), salt water cyanobacteria. The settings on record: Synechococcus 7002, BG-11 liquid medium, 1 mM herbicide, 7 days; control 0.72. On the procedure:
as §2
Green algae and cyanobacteria were propagated photoautotrophically in 250 mL Erlenmeyer flasks containing 100 mL of liquid BG-11 culture medium (see Supporting Information). The cultures were kept on a rotating shaker (100 rpm) at 25° C. for 4 days and continuously illuminated with cool-white fluorescent light with a constant light intensity of 5000 lux. The grown culture medium was sterilized in an autoclave at 121° C. and 1.05 kg cm^−2 pressure for 20 min. For the cell experiments, 20 mL aliquots of the BG-11 medium containing the green algal ([cells]initial=5.9×10^7 mL^−1) or cyanobacteria cells ([cells]initial=1.7×10^9 mL^−1) were placed in sterile 50 mL Erlenmeyer flasks. CD 1 Red, Synechocystos 6803 and Synechococcus 7002 were then treated with an aliquot of a stock herbicide solution to bring the final herbicide concentration to 1 mM and incubated for 7 days on a rotator shaker (100 rpm) at 25° C. and continuous light intensity of 5000 lux. Cell counts were correlated with the absorbance and measured as a function of time using a Spectronic 20 Genesis spectrophotometer. As previously reported by Ma et al., 5 the optimal wavelength for monitoring culture growth is 680 nm. Experiments for each herbicide were repeated three times. Control and treated cultures were grown under the same conditions of temperature, photoperiod, and agitation. In each experiment, the inhibition of cell growth in treated cultures was monitored spectrophotometrically and compared to the growth in control samples.

The test system of the next assay is E. Coli. Description: E. Coli agar experiments (colony count). The settings on record: M9 agar, 1 mM herbicide, 37° C., 24 hours; controls 36 colonies. As to the method: A M9 minimum medium containing 1.5 wt. % agar was prepared and sterilized at 121° C., 1.05 kg cm^−2 for 20 min. An aliquot of each tested herbicide solution was added to portions of the autoclaved agar to give a 1 mM final concentration of the herbicide. Twenty mL of the liquid agar was poured into a standard Petri dish and allowed to harden at room temperature. E. Coli cell suspensions were inoculated using a sterile inoculation loop and stored at 37° C. for 24 hours. Control and treated cultures were grown under the same conditions. In each experiment, the inhibition of growth in treated cultures was monitored relative to growth in control samples by manually counting the number of colonies.

[5] abbreviates: Syn. 7002, herbicide concentration 0.3 mM, 5 days.
The mark [6] stands for this setting: Synechococcus, 120 h, read-out: Average radii of the inhibition zones.
[7] abbreviates: herbicide 0.15 M in 459S2 polymer pellet.
[8] abbreviates: herbicide 0.3 M in 459S2 polymer pellet.
Setting [9] is: CD1 Red, herbicide concentration 0.3 mM, 5 days.
Where [10] appears, read: CD1 Red, herbicide concentration 3 mM, 5 days.
[11] abbreviates: herbicide 0.1 M in 459S2 polymer pellet.

Like-named read-outs stand apart in the source and are kept apart here.

`C=CC(=O)N(CC(=O)O)CP(=O)(O)O` [AA, N-Acryloyl-N-(phosphonomethyl)glycine]: the “Average radii of the inhibition zones” value in assay [1] (setting [5]) is listed as “No”; in assay [1] (Syn. 7002, herbicide concentration 3 mM, 5 days), “No”; in the assay with green algae CD 1 Red (setting [9]), “No”; in the assay with green algae CD 1 Red (setting [10]), “No”; in the assay on green algae CD 1 Red (CD1 Red, herbicide concentration 30 mM, 5 days), “No”. Further, the zone of inhibition at 30000 µM in assay [1] (setting [6]) came to 6.5 mm. Further, the zone of inhibition at 300000 µM is 15 mm in assay [1] (setting [6]) and 10 mm in the assay with green algae CD 1 Red (120 h, read-out: Average radii of the inhibition zones). Besides, the “Optical Density at 680 nm after 7 days of media growth” value in assay [2] came out at 0.54; in assay [4], 0.07. Besides, the “Diameter of Inhibition Zone (Bleaching indicates no growth detected on 100 mm plate)” value was 20 ± 2 mm in the assay with Navicula pelliculosa (setting [7]), “Bleaching” in the assay with Navicula pelliculosa (setting [8]), 23 ± 2 mm in assay [3] (setting [11]) and “Bleaching” in assay [3] (setting [8]). In the assay with E. Coli, the “Number of E. Coli colonies” value is 6 colonies.
Regarding `O=C(O)CNCP(=O)(O)O` [Glyphosate, N-(Phosphonomethyl)glycine, reference compound], the “Average radii of the inhibition zones” value is on record as “No” in assay [1] (setting [5]); “Complete” in assay [1] (Syn. 7002, herbicide concentration 300 mM, 5 days); “No” in the assay on green algae CD 1 Red (setting [9]); “No” in the assay with green algae CD 1 Red (setting [10]); “Complete” in the assay with green algae CD 1 Red (CD1 Red, herbicide concentration 300 mM, 5 days). Also, in assay [1] (Synechococcus, 120 h, Syn. 7002, herbicide concentration 3 mM, 5 days, read-out: Average radii of the inhibition zones), the zone of inhibition at 3000 µM amounted to 6 mm. In addition, the zone of inhibition at 30000 µM in assay [1] (Synechococcus, 120 h, Syn. 7002, herbicide concentration 30 mM, 5 days, read-out: Average radii of the inhibition zones) was 8 mm; in the assay on green algae CD 1 Red (120 h, CD1 Red, herbicide concentration 30 mM, 5 days, read-out: Average radii of the inhibition zones), 7.5 mm. Besides, the “Optical Density at 680 nm after 7 days of media growth” value in assay [2] is 0.58; in assay [4], 0.04. The “Diameter of Inhibition Zone (Bleaching indicates no growth detected on 100 mm plate)” value with Navicula pelliculosa (setting [7]) is listed as 22.5 ± 2 mm; with Navicula pelliculosa (setting [8]), “Bleaching”; in assay [3] (setting [11]), 17.5 ± 2 mm; in assay [3] (setting [8]) it was “Bleaching”. Further, the “Number of E. Coli colonies” value in the assay with E. Coli is reported as 11 colonies.

The values above are taken from patent publication US20080317700A1 (priority 2006, published 2008).
